Reference: US10259810B2, “N-sulfonylated pyrazolo[3,4-b]pyridin-6-carboxamides and method of use” (AbbVie S.à.r.l., priority 2015, dated 2019)
Where two headings read alike, the source gives them in different places.

How the values were obtained:
Assay type in all cases: cell-based
ΔF508-CFTR [1] = target: T1, ΔF508-CFTR (Homo sapiens, UniProt P13569, DEL508-508); assay: CFTR cell surface levels using HRP-tagged ΔF508-CFTR expressing CFBE cells, in the presence of a co-corrector; settings: HRP-tagged ΔF508-CFTR CFBE cells, in the presence of 3 μM co-corrector; for EC50: read-out: EC50
T1 construct: host or cells: CFBE41o-, doxycycline-inducible
Outline: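 Chemiluminescent read-out of surface HRP (15 min, dark) after PBS washes. Activity is normalized as 100×(sample−DMSO)/(3 μM co-corrector alone−DMSO).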

ΔF508-CFTR [2] = target: T1, ΔF508-CFTR; assay: CFTR cell surface levels using HRP-tagged ΔF508-CFTR expressing CFBE cells, intrinsic corrector capacity; parameters: % Activation: concentration or dose not given beside the values; settings: HRP-tagged ΔF508-CFTR expressing CFBE41o- cells, compound alone (intrinsic corrector capacity), 20 hours at 33° C.; for EC50: read-out: EC50
Outline: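 Read-out: chemiluminescent HRP activity of ECL4-HRP-tagged ΔF508-CFTR at the cell surface, 15 min substrate in dark. Normalized as 100×(sample−DMSO)/(positive control−DMSO).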

CFTR ΔF508 = target: T2, CFTR ΔF508 (Homo sapiens, UniProt P13569, DEL508-508); assay: Chronic TECC assay, primary bronchial epithelial cells of CF patients homozygous for CFTR ΔF508 (corrector, co-corrector and potentiator); settings: chronic TECC; for % Activity at 1 μM (Ieq*) / % Activity at 1 μM (AUC**): test compound at 1 μM; for % Activity at 3 μM (AUC**): test compound at 3 μM
T2 construct: bronchial epithelial cells isolated from CF patients homozygous for the CFTR ΔF508 mutation; McGill University; Asterand; University of North Carolina hAEC-CF; host or cells: primary human bronchial epithelial cells from CF patients homozygous for ΔF508, differentiated at air-liquid interface
Outline: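 Primary bronchial epithelial cells from ΔF508-homozygous CF patients on collagen IV-coated Transwells were chronically treated with test compound plus corrector and potentiator, which were re-added before recording. Ieq was derived from PD and Rt in NaCl-Ringer, pH 7.4, at 37° C, with apical amiloride and bilateral forskolin, recorded every 2 min over 20 min. Ieq increase was normalized to controls, and EC50 was taken from per-well concentrations.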

[3] = Ieq = calculations based on the maximum current, read-out: EC50 (nM) (Ieq*)
[4] = Ieq = calculations based on the maximum current
[5] = AUC = full area under the curve upon forskolin stimulation
[6] = AUC = full area under the curve upon forskolin stimulation, read-out: EC50 (nM) (AUC**)

T1 sequence (P13569 with tags, fused parts or gaps DEL508-508): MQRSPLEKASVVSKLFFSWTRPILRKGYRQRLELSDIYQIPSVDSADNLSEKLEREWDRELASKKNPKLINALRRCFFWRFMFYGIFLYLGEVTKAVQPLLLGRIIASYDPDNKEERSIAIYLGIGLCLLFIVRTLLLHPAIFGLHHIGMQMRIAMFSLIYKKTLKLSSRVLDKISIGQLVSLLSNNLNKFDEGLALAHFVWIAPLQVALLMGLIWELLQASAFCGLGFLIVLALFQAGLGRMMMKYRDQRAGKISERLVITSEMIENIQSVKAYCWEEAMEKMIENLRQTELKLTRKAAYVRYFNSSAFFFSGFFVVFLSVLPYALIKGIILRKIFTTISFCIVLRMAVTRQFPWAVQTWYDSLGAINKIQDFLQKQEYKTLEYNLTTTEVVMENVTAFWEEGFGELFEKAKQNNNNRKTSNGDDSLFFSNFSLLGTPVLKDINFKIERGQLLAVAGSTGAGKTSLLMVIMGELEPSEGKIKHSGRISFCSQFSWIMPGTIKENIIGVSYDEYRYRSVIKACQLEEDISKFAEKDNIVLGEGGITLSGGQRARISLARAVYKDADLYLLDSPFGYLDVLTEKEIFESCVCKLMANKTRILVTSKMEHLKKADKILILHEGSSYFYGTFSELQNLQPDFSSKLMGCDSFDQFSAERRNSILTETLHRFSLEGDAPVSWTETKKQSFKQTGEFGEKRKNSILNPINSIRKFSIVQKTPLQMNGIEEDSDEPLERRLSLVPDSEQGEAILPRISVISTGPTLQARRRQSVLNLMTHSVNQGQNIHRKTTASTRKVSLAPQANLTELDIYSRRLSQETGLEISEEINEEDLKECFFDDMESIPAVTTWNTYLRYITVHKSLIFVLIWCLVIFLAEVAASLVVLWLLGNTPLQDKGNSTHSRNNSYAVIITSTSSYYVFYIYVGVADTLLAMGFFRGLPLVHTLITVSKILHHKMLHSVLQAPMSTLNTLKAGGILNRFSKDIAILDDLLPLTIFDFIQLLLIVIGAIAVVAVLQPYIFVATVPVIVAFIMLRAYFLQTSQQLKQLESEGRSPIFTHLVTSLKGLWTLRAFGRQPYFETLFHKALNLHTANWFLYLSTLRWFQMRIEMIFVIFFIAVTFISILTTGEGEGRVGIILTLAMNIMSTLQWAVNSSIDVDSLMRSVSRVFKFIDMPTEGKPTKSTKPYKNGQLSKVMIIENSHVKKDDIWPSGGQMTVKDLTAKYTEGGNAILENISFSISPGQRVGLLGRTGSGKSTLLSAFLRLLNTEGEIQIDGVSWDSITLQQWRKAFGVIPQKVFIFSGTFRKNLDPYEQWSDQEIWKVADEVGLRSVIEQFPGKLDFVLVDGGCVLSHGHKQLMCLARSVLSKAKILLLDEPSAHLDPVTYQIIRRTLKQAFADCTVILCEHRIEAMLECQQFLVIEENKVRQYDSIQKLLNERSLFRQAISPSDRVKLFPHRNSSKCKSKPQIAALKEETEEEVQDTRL
T2 sequence (P13569 with tags, fused parts or gaps DEL508-508): as above

Compound	% Activation (ΔF508-CFTR [1])	EC50 (ΔF508-CFTR [1])	% Activation (ΔF508-CFTR [2])	EC50 (ΔF508-CFTR [2])	EC50 (CFTR ΔF508; [3])	% Activity at 1 μM (Ieq*) (CFTR ΔF508; [4])	% Activity at 1 μM (AUC**) (CFTR ΔF508; [5])	EC50 (CFTR ΔF508; [6])	% Activity at 3 μM (AUC**) (CFTR ΔF508; [5])
CC(C)c1nn(-c2cccc(N3CCCC3)c2)c2nc(C(=O)NS(C)(=O)=O)cc(-c3ccc(N(C)C4CCOCC4)cc3)c12 [Compound 110, N-(methanesulfonyl)-4-{4-[methyl(oxan-4-yl)amino]phenyl}-3-(propan-2-yl)-1-[3-(pyrrolidin-1-yl)phenyl]-1H-pyrazolo[3,4-b]pyridine-6-carboxamide]	665.7%	336 nM	451.8%	358 nM	< 30 nM	170%			
CC(C)c1nn(-c2ccccc2)c2nc(C(=O)NS(C)(=O)=O)cc(-c3ccc(N4CCOCC4)nc3)c12 [Compound 34, N-(methanesulfonyl)-4-[6-(morpholin-4-yl)pyridin-3-yl]-1-phenyl-3-(propan-2-yl)-1H-pyrazolo[3,4-b]pyridine-6-carboxamide]	462.55%	356 nM	292.95%	611 nM	< 30 nM	270%			
COCCS(=O)(=O)NC(=O)c1cc(N2CCC(COC)CC2)c2c(C(C)C)nn(C3CCCCC3)c2n1 [Compound 251, 1-cyclohexyl-N-(2-methoxyethanesulfonyl)-4-[4-(methoxymethyl)piperidin-1-yl]-3-(propan-2-yl)-1H-pyrazolo[3,4-b]pyridine-6-carboxamide]	488.7%	367 nM	273.3%	634 nM			336.34%		
COC(C)(C)C1CCN(c2cc(C(=O)NS(C)(=O)=O)nc3c2c(C2CCC2)nn3-c2ccccc2)CC1 [Compound 294, 3-cyclobutyl-N-(methanesulfonyl)-4-[4-(2-methoxypropan-2-yl)piperidin-1-yl]-1-phenyl-1H-pyrazolo[3,4-b]pyridine-6-carboxamide]	548.45%	22.1 nM	319.6%	62.2 nM				21 nM	
CC(=O)N1CCC(F)(COc2cc(C(=O)NS(C)(=O)=O)nc3c2c(C2CCC2)nn3-c2ccccc2)CC1 [Compound 274, 4-[(1-acetyl-4-fluoropiperidin-4-yl)methoxy]-3-cyclobutyl-N-(methanesulfonyl)-1-phenyl-1H-pyrazolo[3,4-b]pyridine-6-carboxamide]	300%	398 nM	159.05%	842 nM			224.99%	> 300 nM	
CC(C)c1nn(-c2ccc(F)cc2)c2nc(C(=O)NS(C)(=O)=O)cc(N3CCC4(CCO4)CC3)c12 [Compound 177, 1-(4-fluorophenyl)-N-(methanesulfonyl)-4-(1-oxa-7-azaspiro[3.5]nonan-7-yl)-3-(propan-2-yl)-1H-pyrazolo[3,4-b]pyridine-6-carboxamide]	263.9%	385 nM	99.405%	830 nM			419.90%	> 100 nM	
CC(C)c1nn(-c2ccc(F)cc2)c2nc(C(=O)NS(C)(=O)=O)cc(N3CCC(C#N)CC3)c12 [Compound 240, 4-(4-cyanopiperidin-1-yl)-1-(4-fluorophenyl)-N-(methanesulfonyl)-3-(propan-2-yl)-1H-pyrazolo[3,4-b]pyridine-6-carboxamide]	312.8%	139 nM	176.67%	377 nM			288.71%	140 nM	
CN(C)S(=O)(=O)NC(=O)c1cc(C2CCN(C3CCC(F)(F)CC3)CC2)c2c(C3CCC3)nn(-c3ccc(F)cc3)c2n1 [Compound 594, 3-cyclobutyl-4-[1-(4,4-difluorocyclohexyl)piperidin-4-yl]-N-(dimethylsulfamoyl)-1-(4-fluorophenyl)-1H-pyrazolo[3,4-b]pyridine-6-carboxamide]	308.05%	181 nM	135.7%	519 nM					320%
CNS(=O)(=O)NC(=O)c1cc(N2CCC(N3CCN(C(C)C)CC3)CC2)c2c(C3CCC3)nn(-c3ccc(F)cc3)c2n1 [Compound 638, 3-cyclobutyl-1-(4-fluorophenyl)-N-(methylsulfamoyl)-4-{4-[4-(propan-2-yl)piperazin-1-yl]piperidin-1-yl}-1H-pyrazolo[3,4-b]pyridine-6-carboxamide]	606.08%	95 nM	398.98%	241 nM				11.2 nM	341.3493%
CS(=O)(=O)NC(=O)c1cc(N2CCC(CO)CC2)c2c(C3CCC3)nn(-c3ccccc3)c2n1 [Compound 244, 3-cyclobutyl-4-[4-(hydroxymethyl)piperidin-1-yl]-N-(methanesulfonyl)-1-phenyl-1H-pyrazolo[3,4-b]pyridine-6-carboxamide]	290.6%	413 nM	182.7%	381 nM			238.89%		
COC1CCN(c2cc(C(=O)NS(C)(=O)=O)nc3c2c(C(C)C)nn3-c2cccc(C)c2)CC1 [Compound 117, N-(methanesulfonyl)-4-(4-methoxypiperidin-1-yl)-1-(3-methylphenyl)-3-(propan-2-yl)-1H-pyrazolo[3,4-b]pyridine-6-carboxamide]	417.92%	200 nM	281.88%	333 nM	> 1000 nM	81%			
COCC1CCN(c2cc(C(=O)NS(=O)(=O)C3CCOC3)nc3c2c(C2CCC2)nn3-c2ccccc2)CC1 (centres unmarked) [Compound 369, 3-cyclobutyl-4-[4-(methoxymethyl)piperidin-1-yl]-N-(oxolane-3-sulfonyl)-1-phenyl-1H-pyrazolo[3,4-b]pyridine-6-carboxamide]	444%	106 nM	292.7%	101 nM			583.16%	8.3 nM	
COC1CCN(c2cc(C(=O)NS(C)(=O)=O)nc3c2c(C(C)C)nn3-c2cccc(N(C)C)c2)CC1 [Compound 155, 1-[3-(dimethylamino)phenyl]-N-(methanesulfonyl)-4-(4-methoxypiperidin-1-yl)-3-(propan-2-yl)-1H-pyrazolo[3,4-b]pyridine-6-carboxamide]	555.45%	230 nM	439.5%	454 nM			200%	4 nM	
CC(C)c1nn(-c2ccnc(N3CCCC3)c2)c2nc(C(=O)NS(C)(=O)=O)cc(-c3ccc(N4CCC(C#N)CC4)cc3)c12 [Compound 169, 4-[4-(4-cyanopiperidin-1-yl)phenyl]-N-(methanesulfonyl)-3-(propan-2-yl)-1-[2-(pyrrolidin-1-yl)pyridin-4-yl]-1H-pyrazolo[3,4-b]pyridine-6-carboxamide]	519.3%	284 nM	344.25%	426 nM			210%	2.1 nM	
COC(=O)N1CCC2CN(c3cc(C(=O)NS(C)(=O)=O)nc4c3c(C3CCC3)nn4-c3ccccc3)CCC21 (centres unmarked) [Compound 215, methyl 5-{3-cyclobutyl-6-[(methanesulfonyl)carbamoyl]-1-phenyl-1H-pyrazolo[3,4-b]pyridin-4-yl}octahydro-1H-pyrrolo[3,2-c]pyridine-1-carboxylate]	569.35%	47.9 nM	374.57%	274 nM			320%	45 nM	
CS(=O)(=O)NC(=O)c1cc(N2CCC(S(C)(=O)=O)CC2)c2c(C3CCC3)nn(-c3ccccc3)c2n1 [Compound 190, 3-cyclobutyl-N-(methanesulfonyl)-4-[4-(methanesulfonyl)piperidin-1-yl]-1-phenyl-1H-pyrazolo[3,4-b]pyridine-6-carboxamide]	502.4%	1240 nM	284.8%	967 nM			269%	51 nM	
COCC1CCN(c2cc(C(=O)NS(=O)(=O)N(C)C)nc3c2c(C2CCC2)nn3-c2ccccc2)CC1 [Compound 402, 3-cyclobutyl-N-(dimethylsulfamoyl)-4-[4-(methoxymethyl)piperidin-1-yl]-1-phenyl-1H-pyrazolo[3,4-b]pyridine-6-carboxamide]	471.42%	116 nM	303.5%	312 nM			345.045%	12.1 nM	
